# Numbered stars: 1 amine (or outer) side, 2 acyl side, 3 side chain; on linkers, the order of the positions; unused ones are H or OH. Bridge positions count the residues as written; N and C are the ends. Square brackets hold non-standard residues; d marks the D form. Peptide text beside a SMILES is read from it. I, II: the chains in the order shown. X4 = O=C(CCOCCOCCOCCOCCOCCOCCOCCOCCOCCOCCOCCOCCOCCOCCC(=O)[*:2])[*:1]; Bip = N[C@@H](Cc1ccc(-c2ccccc2)cc1)C(=O)O; 1Nal = N[C@@H](Cc1cccc2ccccc12)C(=O)O; Diglycolyl = O=C(COCC(=O)[*:2])[*:1]; NMeR = CN[C@@H](CCCNC(=N)N)C(=O)O; NMeE = CN[C@@H](CCC(=O)O)C(=O)O; Tic = O=C(O)[C@@H]1Cc2ccccc2CN1; Pen = CC(C)(S)[C@H](N)C(=O)O
# Molecular target: α4β7 (Homo sapiens, UniProt P13612+P26010)
# Assay: α4β7-MAdCAM Cell Adhesion Assay (RPMI 8866 human cells)
# Assay type: cell-based
# Parameters: host or cells: RPMI 8866 human B lymphoblastoid cells
# Details: Table 3-B, Potency (α4β7); range classes; read-out: α4β7 cell (Hu) IC50
# Protocol: RPMI 8866 human cells (Sigma #95041316) were cultured in RPMI 1640 HEPES medium (Invitrogen #22400-089) supplemented with 10% serum (Fetal Bovine Serum, Invitrogen #16140-071), 1 mM sodium pyruvate (Invitrogen #11360-070), 2 mM L-glutamine (Invitrogen #25030-081) and Penicillin-Streptomycin (Invitrogen #15140-122) at 100 units of penicillin and 100 μg of streptomycin per ml. The cells were washed two times in DMEM medium (ATCC #30-2002) supplemented with 0.1% BSA, 10 mM HEPES pH 7 and 1 mM MnCl2. The cells were re-suspended in supplemented DMEM medium at a density of 4×10^6 cells/ml.
# A Nunc MaxiSorp plate was coated with rh MAdCAM-1/Fc Chimera (R&D #6065-MC) at 200 ng per well in 50 ul per well in 1×PBS and incubated at 4° C. overnight. The solution was then removed by shaking, blocked with 250 ul per well PBS containing 1% BSA, and incubated at 37° C. for 1 hr. The solution was removed by shaking. Peptides were diluted by serial dilution in a final volume of 50 ul per well (2× concentration). To each well, 50 ul of cells (200,000 cells) were added and the plate was incubated at 37° C., 5% CO2 for 30-45 min to allow cell adhesion. The wells were washed manually three times (100 ul per wash) with supplemented DMEM. After the final wash, 100 ul/well of supplemented DMEM and 10 ul/well of MTT reagent (ATTC cat#30-1010K) were added. The plate was incubated at 37° C., 5% CO2 for 2-3 hrs until a purple precipitate was visible. 100 ul of Detergent Reagent (ATTC cat#30-1010K) was added to each well. The plate was covered from the light, wrapped in Parafilm to prevent evaporation, and left overnight at room temperature in the dark. The plate was shaken for 5 min and the absorbance at 570 nm was measured. To calculate the dose response, the absorbance value of control wells not containing cells was subtracted from each test well.
# Chain of α4β7 (P13612 34-1032): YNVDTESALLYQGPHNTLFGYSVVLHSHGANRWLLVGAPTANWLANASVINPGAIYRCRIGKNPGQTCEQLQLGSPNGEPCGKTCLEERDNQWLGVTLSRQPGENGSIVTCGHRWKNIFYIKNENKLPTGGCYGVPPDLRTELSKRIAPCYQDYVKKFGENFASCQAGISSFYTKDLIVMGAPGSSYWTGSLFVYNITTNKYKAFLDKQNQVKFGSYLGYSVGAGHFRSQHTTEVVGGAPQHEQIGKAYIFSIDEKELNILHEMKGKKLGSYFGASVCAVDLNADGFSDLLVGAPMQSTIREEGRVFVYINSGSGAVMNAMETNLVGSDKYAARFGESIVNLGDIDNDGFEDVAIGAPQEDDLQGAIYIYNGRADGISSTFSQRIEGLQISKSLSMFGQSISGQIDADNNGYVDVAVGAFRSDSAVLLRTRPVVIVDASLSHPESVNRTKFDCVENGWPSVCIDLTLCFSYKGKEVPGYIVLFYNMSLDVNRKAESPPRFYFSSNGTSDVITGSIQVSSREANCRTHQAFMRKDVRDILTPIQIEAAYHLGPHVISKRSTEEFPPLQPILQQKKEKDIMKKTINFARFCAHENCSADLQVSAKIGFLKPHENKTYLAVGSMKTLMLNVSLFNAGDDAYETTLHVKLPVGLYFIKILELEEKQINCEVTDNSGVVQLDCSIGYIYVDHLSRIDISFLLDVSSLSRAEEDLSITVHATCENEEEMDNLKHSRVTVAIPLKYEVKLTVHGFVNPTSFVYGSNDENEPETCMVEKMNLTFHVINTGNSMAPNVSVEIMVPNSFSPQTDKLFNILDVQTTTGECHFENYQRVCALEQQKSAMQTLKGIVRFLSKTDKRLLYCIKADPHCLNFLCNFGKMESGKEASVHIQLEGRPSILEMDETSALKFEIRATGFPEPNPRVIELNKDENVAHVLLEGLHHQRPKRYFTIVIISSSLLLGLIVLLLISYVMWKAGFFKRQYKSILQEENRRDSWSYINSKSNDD
# Chain of α4β7 (P26010 20-798): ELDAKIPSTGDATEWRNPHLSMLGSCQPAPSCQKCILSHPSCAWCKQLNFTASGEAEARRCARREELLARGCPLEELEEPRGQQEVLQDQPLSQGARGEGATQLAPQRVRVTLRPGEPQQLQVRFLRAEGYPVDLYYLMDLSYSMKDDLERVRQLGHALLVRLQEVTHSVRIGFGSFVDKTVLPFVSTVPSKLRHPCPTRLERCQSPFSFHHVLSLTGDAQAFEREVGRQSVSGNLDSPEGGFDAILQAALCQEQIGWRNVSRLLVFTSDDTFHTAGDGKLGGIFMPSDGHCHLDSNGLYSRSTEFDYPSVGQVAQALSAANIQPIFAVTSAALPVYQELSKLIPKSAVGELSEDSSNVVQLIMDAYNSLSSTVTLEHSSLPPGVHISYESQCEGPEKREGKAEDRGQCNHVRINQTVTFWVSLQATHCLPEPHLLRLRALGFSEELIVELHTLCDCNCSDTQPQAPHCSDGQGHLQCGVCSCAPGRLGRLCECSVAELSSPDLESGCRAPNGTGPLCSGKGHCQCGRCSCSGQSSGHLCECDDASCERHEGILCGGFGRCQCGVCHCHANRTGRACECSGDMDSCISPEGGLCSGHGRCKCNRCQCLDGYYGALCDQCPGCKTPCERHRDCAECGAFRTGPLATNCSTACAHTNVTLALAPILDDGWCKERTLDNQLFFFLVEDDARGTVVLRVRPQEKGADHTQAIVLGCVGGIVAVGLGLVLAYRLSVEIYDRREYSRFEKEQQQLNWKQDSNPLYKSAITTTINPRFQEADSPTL
row,SMILES,IC50
1,"CC(=O)N[C@@H]1C(=O)N(C)[C@@H](CCCNC(=N)N)C(=O)N[C@@H](CO)C(=O)N[C@@H](CC(=O)O)C(=O)N[C@@H]([C@@H](C)O)C(=O)N[C@@H](CC(C)C)C(=O)N[C@H](C(=O)N2Cc3ccccc3C[C@H]2C(=O)N[C@H](CCC(=O)O)C(=O)N[C@H](CCCCNC(=O)COCC(=O)NCCCC[C@@H](NC(=O)[C@@H](CCC(=O)O)NC(=O)[C@@H]2Cc3ccccc3CN2C(=O)[C@@H]2CSSC(C)(C)[C@H](NC(C)=O)C(=O)N(C)[C@@H](CCCNC(=N)N)C(=O)N[C@@H](CO)C(=O)N[C@@H](CC(=O)O)C(=O)N[C@@H]([C@@H](C)O)C(=O)N[C@@H](CC(C)C)C(=O)N2)C(N)=O)C(N)=O)CSSC1(C)C [compound 93] (I: Ac-[Pen][NMeR]SDTLC[Tic][dE][dK]-NH2 / II: Ac-[Pen][NMeR]SDTLC[Tic][dE][dK]-NH2; disulfide I:1-I:7, II:1-II:7; linker I:10-II:10 via Diglycolyl)",0.5 to 1 µM
2,"CC(=O)N[C@@H]1C(=O)N(C)[C@@H](CCCNC(=N)N)C(=O)N[C@@H](CO)C(=O)N[C@@H](CC(=O)O)C(=O)N[C@@H]([C@@H](C)O)C(=O)N[C@@H](CC(C)C)C(=O)N[C@H](C(=O)N[C@@H](Cc2ccc(-c3ccccc3)cc2)C(=O)N[C@H](CCC(=O)O)C(=O)N[C@H](CCCCNC(=O)COCC(=O)NCCCC[C@@H](NC(=O)[C@@H](CCC(=O)O)NC(=O)[C@H](Cc2ccc(-c3ccccc3)cc2)NC(=O)[C@H]2NC(=O)[C@H](CC(C)C)NC(=O)[C@H]([C@@H](C)O)NC(=O)[C@H](CC(=O)O)NC(=O)[C@H](CO)NC(=O)[C@H](CCCNC(=N)N)N(C)C(=O)[C@@H](NC(C)=O)C(C)(C)SSC2(C)C)C(N)=O)C(N)=O)C(C)(C)SSC1(C)C [compound 108] (I: Ac-[Pen][NMeR]SDTL[Pen][Bip][dE][dK]-NH2 / II: Ac-[Pen][NMeR]SDTL[Pen][Bip][dE][dK]-NH2; disulfide I:1-I:7, II:1-II:7; linker I:10-II:10 via Diglycolyl)",0.01 to 0.025 µM
3,"CC(=O)N[C@@H]1C(=O)N(C)[C@@H](CCCNC(=N)N)C(=O)N[C@@H](CO)C(=O)N[C@@H](CC(=O)O)C(=O)N[C@@H]([C@@H](C)O)C(=O)N[C@@H](CC(C)C)C(=O)N[C@H](C(=O)N[C@@H](Cc2c[nH]c3ccccc23)C(=O)N(C)[C@@H](CCC(=O)O)C(=O)N[C@H](CCCCNC(=O)COCC(=O)NCCCC[C@@H](NC(=O)[C@H](CCC(=O)O)N(C)C(=O)[C@H](Cc2c[nH]c3ccccc23)NC(=O)[C@H]2NC(=O)[C@H](CC(C)C)NC(=O)[C@H]([C@@H](C)O)NC(=O)[C@H](CC(=O)O)NC(=O)[C@H](CO)NC(=O)[C@H](CCCNC(=N)N)N(C)C(=O)[C@@H](NC(C)=O)C(C)(C)SSC2(C)C)C(N)=O)C(N)=O)C(C)(C)SSC1(C)C [compound 31] (I: Ac-[Pen][NMeR]SDTL[Pen]W[NMeE][dK]-NH2 / II: Ac-[Pen][NMeR]SDTL[Pen]W[NMeE][dK]-NH2; disulfide I:1-I:7, II:1-II:7; linker I:10-II:10 via Diglycolyl)",0.05 to 0.1 µM
4,"CC(=O)N[C@@H]1C(=O)N(C)[C@@H](CCCNC(=N)N)C(=O)N[C@@H](CO)C(=O)N[C@@H](CC(=O)O)C(=O)N[C@@H]([C@@H](C)O)C(=O)N[C@@H](CC(C)C)C(=O)N[C@H](C(=O)N[C@@H](Cc2cccc3ccccc23)C(=O)N[C@H](CCCNC(=N)N)C(=O)N[C@H](CCCCNC(=O)COCC(=O)NCCCC[C@@H](NC(=O)[C@@H](CCCNC(=N)N)NC(=O)[C@H](Cc2cccc3ccccc23)NC(=O)[C@H]2NC(=O)[C@H](CC(C)C)NC(=O)[C@H]([C@@H](C)O)NC(=O)[C@H](CC(=O)O)NC(=O)[C@H](CO)NC(=O)[C@H](CCCNC(=N)N)N(C)C(=O)[C@@H](NC(C)=O)C(C)(C)SSC2(C)C)C(N)=O)C(N)=O)C(C)(C)SSC1(C)C [compound 114] (I: Ac-[Pen][NMeR]SDTL[Pen][1Nal][dR][dK]-NH2 / II: Ac-[Pen][NMeR]SDTL[Pen][1Nal][dR][dK]-NH2; disulfide I:1-I:7, II:1-II:7; linker I:10-II:10 via Diglycolyl)",0.1 to 0.5 µM
5,CC[C@H](C)[C@@H]1NC(=O)[C@H](CCC(N)=O)NC(=O)[C@H](CO)NC(=O)[C@H](CCCNC(=N)N)N(C)C(=O)[C@@H](NC(C)=O)C(C)(C)SSC(C)(C)[C@@H](C(=O)N[C@@H](Cc2ccc(C(C)(C)C)cc2)C(=O)N[C@@H](CCC(=O)O)CC(=O)N[C@H](CCCCNC(=O)CN(CC(=O)NCCCC[C@@H](NC(=O)C[C@H](CCC(=O)O)NC(=O)[C@H](Cc2ccc(C(C)(C)C)cc2)NC(=O)[C@H]2NC(=O)[C@H](CCC(N)=O)NC(=O)[C@H]([C@@H](C)CC)NC(=O)[C@H](CCC(N)=O)NC(=O)[C@H](CO)NC(=O)[C@H](CCCNC(=N)N)N(C)C(=O)[C@@H](NC(C)=O)C(C)(C)SSC2(C)C)C(N)=O)C(=O)CCN)C(N)=O)NC(=O)[C@H](CCC(N)=O)NC1=O [compound 190],> 100 µM
6,"CC(=O)N[C@H]1CSSC(C)(C)[C@@H](C(=O)N[C@@H](Cc2c[nH]c3ccccc23)C(=O)N[C@H](CCCCNC(=O)CCOCCOCCOCCOCCOCCOCCOCCOCCOCCOCCOCCOCCOCCOCCC(=O)NCCCC[C@@H](NC(=O)[C@H](Cc2c[nH]c3ccccc23)NC(=O)[C@H]2NC(=O)[C@H](CC(C)C)NC(=O)[C@H]([C@@H](C)O)NC(=O)[C@H](CC(=O)O)NC(=O)[C@H](CO)NC(=O)[C@H](CCCNC(=N)N)N(C)C(=O)[C@@H](NC(C)=O)CSSC2(C)C)C(N)=O)C(N)=O)NC(=O)[C@H](CC(C)C)NC(=O)[C@H]([C@@H](C)O)NC(=O)[C@H](CC(=O)O)NC(=O)[C@H](CO)NC(=O)[C@H](CCCNC(=N)N)N(C)C1=O [compound 36] (I: Ac-C[NMeR]SDTL[Pen]W[dK]-NH2 / II: Ac-C[NMeR]SDTL[Pen]W[dK]-NH2; disulfide I:1-I:7, II:1-II:7; linker I:9-II:9 via X4)",0.05 to 0.1 µM
7,"CC(=O)N[C@@H]1C(=O)N(C)[C@@H](CCCNC(=N)N)C(=O)N[C@@H](CO)C(=O)N[C@@H](CC(=O)O)C(=O)N[C@@H]([C@@H](C)O)C(=O)N[C@@H](CC(C)C)C(=O)N[C@H](C(=O)N[C@H](Cc2c[nH]c3ccccc23)C(=O)N[C@@H](CCC(=O)O)C(=O)N[C@H](CCCCNC(=O)COCC(=O)NCCCC[C@@H](NC(=O)[C@H](CCC(=O)O)NC(=O)[C@@H](Cc2c[nH]c3ccccc23)NC(=O)[C@H]2NC(=O)[C@H](CC(C)C)NC(=O)[C@H]([C@@H](C)O)NC(=O)[C@H](CC(=O)O)NC(=O)[C@H](CO)NC(=O)[C@H](CCCNC(=N)N)N(C)C(=O)[C@@H](NC(C)=O)C(C)(C)SSC2(C)C)C(N)=O)C(N)=O)C(C)(C)SSC1(C)C [compound 28] (I: Ac-[Pen][NMeR]SDTL[Pen][dW]E[dK]-NH2 / II: Ac-[Pen][NMeR]SDTL[Pen][dW]E[dK]-NH2; disulfide I:1-I:7, II:1-II:7; linker I:10-II:10 via Diglycolyl)",0.05 to 0.1 µM
8,"CC(=O)N[C@@H]1C(=O)N(C)[C@@H](CCCNC(=N)N)C(=O)N[C@@H](CO)C(=O)N[C@@H](CC(=O)O)C(=O)N[C@@H]([C@@H](C)O)C(=O)N[C@@H](CC(C)C)C(=O)N[C@H](C(=O)N[C@@H](Cc2cccc3ccccc23)C(=O)N[C@H](CC(C)C)C(=O)N[C@H](CCCCNC(=O)COCC(=O)NCCCC[C@@H](NC(=O)[C@@H](CC(C)C)NC(=O)[C@H](Cc2cccc3ccccc23)NC(=O)[C@H]2NC(=O)[C@H](CC(C)C)NC(=O)[C@H]([C@@H](C)O)NC(=O)[C@H](CC(=O)O)NC(=O)[C@H](CO)NC(=O)[C@H](CCCNC(=N)N)N(C)C(=O)[C@@H](NC(C)=O)C(C)(C)SSC2(C)C)C(N)=O)C(N)=O)C(C)(C)SSC1(C)C [compound 113] (I: Ac-[Pen][NMeR]SDTL[Pen][1Nal][dL][dK]-NH2 / II: Ac-[Pen][NMeR]SDTL[Pen][1Nal][dL][dK]-NH2; disulfide I:1-I:7, II:1-II:7; linker I:10-II:10 via Diglycolyl)",0.5 to 1 µM
9,"CC(=O)N[C@@H]1C(=O)N(C)[C@@H](CCCNC(=N)N)C(=O)N[C@@H](CO)C(=O)N[C@@H](CC(=O)O)C(=O)N[C@@H]([C@@H](C)O)C(=O)N[C@@H](CC(C)C)C(=O)N[C@H](C(=O)N[C@@H](Cc2cccc3ccccc23)C(=O)N[C@H](Cc2c[nH]cn2)C(=O)N[C@H](CCCCNC(=O)COCC(=O)NCCCC[C@@H](NC(=O)[C@@H](Cc2c[nH]cn2)NC(=O)[C@H](Cc2cccc3ccccc23)NC(=O)[C@H]2NC(=O)[C@H](CC(C)C)NC(=O)[C@H]([C@@H](C)O)NC(=O)[C@H](CC(=O)O)NC(=O)[C@H](CO)NC(=O)[C@H](CCCNC(=N)N)N(C)C(=O)[C@@H](NC(C)=O)C(C)(C)SSC2(C)C)C(N)=O)C(N)=O)C(C)(C)SSC1(C)C [compound 112] (I: Ac-[Pen][NMeR]SDTL[Pen][1Nal][dH][dK]-NH2 / II: Ac-[Pen][NMeR]SDTL[Pen][1Nal][dH][dK]-NH2; disulfide I:1-I:7, II:1-II:7; linker I:10-II:10 via Diglycolyl)",0.05 to 0.1 µM

# From patent US9809623B2, “α4β7 peptide monomer and dimer antagonists” (Protagonist Therapeutics, Inc., priority 2014, dated 2017)
